Data: patent publication US8772266B2, “Fungicide pyrazole carboxamides derivates” (Bayer Cropscience AG, priority 2009, dated 2014)

Experiments:
Sphaerotheca fuliginea = assay: In vivo preventive test on Sphaerotheca fuliginea (cucumber), Example G; conditions: 10 ppm of active ingredient, evaluated 7 days after inoculation
Text: After the spray coating has dried on, the plants are inoculated with an aqueous spore suspension of Sphaerotheca fuliginea.

Fusarium nivale = assay: In vivo curative test on Fusarium nivale (wheat); conditions: 500 ppm of active ingredient, evaluated 8 days after inoculation
[1] = logP by HPLC on reversed-phase column (EEC Directive 79/831 Annex V.A8); conditions: for logP: 40° C., 0.1% aqueous formic acid and acetonitrile, linear gradient 10% to 90% acetonitrile
Phakopsora pachyrhizi = assay: In vivo preventive test on Phakopsora pachyrhizi (soybean rust); conditions: 50 ppm of active ingredient, evaluated 11 days after inoculation
Experimental: Solvent: 28.5 parts by weight of acetone
Emulsifier: 1.5 parts by weight of polyoxyethylene alkyl phenyl ether
One day after spraying, the plants are inoculated with an aqueous spore suspension of the causal agent of soybean rust (Phakopsora pachyrhizi).
The test is evaluated 11 days after the inoculation.

Fusarium proliferatum = assay: Inhibition of Fumonisin FB1 produced by Fusarium proliferatum; assay type: cell-based; conditions: 120 h, read-out: inhibition of Fumonisin FB1 production
Tetranychus urticae = assay: Spray application test on Tetranychus urticae; assay type: in vivo; conditions: 500 g of active ingredient/ha; after 6 days
Experimental: Solvent: 78.0 parts by weight acetone • 1.5 parts by weight dimethylformamide
Emulsifier: 0.5 parts by weight alkylarylpolyglcolether
French beans (Phaseolus vulgaris) which are heavily infested with all stages of the two spotted spidermite (Tetranychus urticae), are sprayed with a preparation of the active ingredient at the desired concentration.
After 6 days, mortality in % is determined. 100% means that all spider mites have been killed and 0% means that none of the spider mites have been killed.

Aspergillus parasiticus = assay: microbe, parasite or virus in culture; assay type: cell-based; conditions: 168 h, 50 μM of active ingredient, 7 days, fluorescence, read-out: inhibition of aflatoxines production
Meloidogyne incognita = assay: Test on Meloidogyne incognita; assay type: in vivo; conditions: 20 ppm of active ingredient; after 14 days
Experimental: Solvent: 80.0 parts by weight of acetone
Vessels are filled with sand, a solution of the active ingredient, a suspension containing eggs and larvae of Meloidogyne incognita and salad seeds. The salad seeds germinate and the seedlings grow. Galls develop in the roots.
After 14 days the nematicidal activity is determined on the basis of the percentage of gall formation. 100% means that no galls were found; 0% means that the number of galls found on the roots of the treated plants was equal to that in untreated control plants.

Puccinia triticina = assay: In vivo curative test on Puccinia triticina (wheat); conditions: 500 ppm of active ingredient, evaluated 8 days after inoculation
[2] = HPLC, reversed-phase column (C 18)

## Cn1nc(C(F)F)c(C(=O)N(Cc2c(Cl)cccc2C(F)(F)F)C2CC2)c1F [Example 2]
Sphaerotheca fuliginea
  disease control: 100%
Fusarium nivale
  disease control: 100%
[1]; [2]
  logP: 3.46

## Cn1nc(C(F)F)c(C(=O)N(Cc2cc(Cl)ccc2[Si](C)(C)C)C2CC2)c1F [Example 24]
Sphaerotheca fuliginea
  disease control: 100%
Fusarium nivale
  disease control: 100%
[1]; [2]
  logP: 4.81

## Cc1nn(C)c(F)c1C(=S)N(Cc1ccccc1[Si](C)(C)C)C1CC1 [N-cyclopropyl-5-fluoro-1,3-dimethyl-N-[2-(trimethylsilyl)benzyl]-1H-pyrazole-4-carbothioamide]
Phakopsora pachyrhizi
  disease control: less than 85%

## Cn1nc(C(F)F)c(C(=O)N(Cc2ncc(C(F)(F)F)cc2Cl)C2CC2)c1F [N-{[3-chloro-5-(trifluoromethyl)pyridin-2-yl]methyl}-N-cyclopropyl-3-(difluoromethyl)-5-fluoro-1-methyl-1H-pyrazole-4-carboxamide]
Fusarium proliferatum
  inhibition at 50 µM: < 55%

## CC(c1cc(Cl)cc(Cl)c1)N(C(=O)c1c(C(F)F)nn(C)c1F)C1CC1 (racemic) [Example 40]
Tetranychus urticae
  mortality in %: 80%
Fusarium nivale
  disease control: 100%
[1]; [2]
  logP: 4.04

## Cn1nc(C(F)F)c(C(=S)N(Cc2ccccc2[Si](C)(C)C)C2CC2)c1F [Example 38, N-cyclopropyl-3-(difluoromethyl)-5-fluoro-1-methyl-N-[2-(trimethylsilyl)benzyl]-1H-pyrazole-4-carbothioamide]
Sphaerotheca fuliginea
  disease control: 100%
Aspergillus parasiticus
  inhibition at 50 µM: > 80%
[1]
  chromatographic logP: 4.94

## Cn1nc(C(F)F)c(C(=O)N(Cc2ccccc2[Si](C)(C)C)C2CC2)c1F [Example 3, N-cyclopropyl-3-(difluoromethyl)-5-fluoro-1-methyl-N-[2-(trimethylsilyl)benzyl]-1H-pyrazole-4-carboxamide]
Aspergillus parasiticus
  inhibition at 50 µM: > 80%
[1]
  chromatographic logP: 4.36

## Cn1nc(C(F)F)c(C(=O)N(Cc2ccccc2SC(F)(F)F)C2CC2)c1F [Example 30]
Tetranychus urticae
  mortality in %: 80%
Fusarium nivale
  disease control: 100%
[1]; [2]
  logP: 3.74

## Cn1nc(C(F)F)c(C(=O)N(Cc2ccccc2C(F)(F)F)C2CC2)c1F [Example 61]
Fusarium nivale
  disease control: 100%
[1]; [2]
  logP: 3.39

## CC(c1cccc2c1CCC(C)(C)C2)N(C(=O)c1c(C(F)F)nn(C)c1F)C1CC1 (racemic) [Example 44]
Fusarium nivale
  disease control: 100%
[1]; [2]
  logP: 4.89

## CC(C)Cc1ccccc1CN(C(=O)c1c(C(F)F)nn(C)c1F)C1CC1 [Example 33]
Fusarium nivale
  disease control: 100%
[1]; [2]
  logP: 4.15

## Cn1nc(C(F)F)c(C(=O)N(Cc2cc(I)ccc2C(F)(F)F)C2CC2)c1F [Example 43]
Fusarium nivale
  disease control: 100%
[1]; [2]
  logP: 4.01

## CCCCCc1ccccc1CN(C(=O)c1c(C(F)F)nn(C)c1F)C1CC1 [Example 28]
Fusarium nivale
  disease control: 100%
[1]; [2]
  logP: 4.62

## Cn1nc(C(F)F)c(C(=O)N(Cc2c(F)cccc2C(F)(F)F)C2CC2)c1F [Example 84]
Sphaerotheca fuliginea
  disease control: 100%
Fusarium nivale
  disease control: 100%

## Cn1nc(C(F)F)c(C(=O)N(Cc2cc(Cl)ccc2C(F)(F)F)C2CC2)c1Cl [Example 36]
Fusarium nivale
  disease control: 100%
[1]; [2]
  logP: 4.01

## CC(C)c1ccccc1CN(C(=O)c1c(C(F)F)nn(C)c1F)C1CC1 [Example 6]
Sphaerotheca fuliginea
  disease control: 100%
Tetranychus urticae
  mortality in %: 80%
Meloidogyne incognita
  nematicidal activity (% reduction of galls vs untreated control): 80%
Fusarium nivale
  disease control: 100%
[1]; [2]
  logP: 3.35

## Cn1nc(C(F)F)c(C(=O)N(Cc2cc(Cl)c(Cl)cc2C(F)(F)F)C2CC2)c1F [Example 25]
Fusarium nivale
  disease control: 100%
[1]; [2]
  logP: 4.34

## Cn1nc(C(F)F)c(C(=O)N(Cc2cc(Cl)ccc2C2CC2)C2CC2)c1F [Example 41]
Sphaerotheca fuliginea
  disease control: 100%
Fusarium nivale
  disease control: 100%
[1]; [2]
  logP: 3.87

## CCc1cc(C)c(C)cc1CN(C(=O)c1c(C(F)F)nn(C)c1F)C1CC1 [Example 53]
Fusarium nivale
  disease control: 100%
[1]; [2]
  logP: 4.04

## CC(c1cccc2ccccc12)N(C(=O)c1c(C(F)F)nn(C)c1F)C1CC1 (stereo not shown) [N-cyclopropyl-3-(difluoromethyl)-5-fluoro-1-methyl-N-[1-(1-naphthyl)ethyl]-1H-pyrazole-4-carboxamide, reference compound]
Puccinia triticina
  disease control: less than 85%
Fusarium nivale
  disease control: less than 95%

## Cc1cc(Br)c(CN(C(=O)c2c(C(F)F)nn(C)c2F)C2CC2)cc1Br [Example 17]
Fusarium nivale
  disease control: 100%
[1]; [2]
  logP: 4.19

## Cn1nc(C(F)F)c(C(=O)N(Cc2c(C(F)(F)F)ccc(Cl)c2Cl)C2CC2)c1F [Example 15]
Sphaerotheca fuliginea
  disease control: 100%
Fusarium nivale
  disease control: 100%
[1]; [2]
  logP: 3.89

## CC(C)c1ccccc1C(C)N(C(=O)c1c(C(F)F)nn(C)c1F)C1CC1 (stereo not shown) [Example 80]
Sphaerotheca fuliginea
  disease control: 100%
Fusarium nivale
  disease control: 100%
[1]; [2]
  logP: 3.99

## Cn1nc(C(F)F)c(C(=O)N(Cc2cc(Cl)cc(Cl)c2Cl)C2CC2)c1F [Example 18]
Sphaerotheca fuliginea
  disease control: 100%
Fusarium nivale
  disease control: 100%
[1]; [2]
  logP: 4.11

## Cn1nc(C(F)F)c(C(=O)N(Cc2cc(Cl)ccc2C(F)(F)F)C2CC2)c1F [Example 1]
Sphaerotheca fuliginea
  disease control: 100%
Tetranychus urticae
  mortality in %: 80%
Fusarium nivale
  disease control: 100%
[1]; [2]
  logP: 3.8

## CCc1ccccc1C(C)N(C(=O)c1c(C(F)F)nn(C)c1F)C1CC1 (stereo not shown) [Example 81]
Sphaerotheca fuliginea
  disease control: 100%
Fusarium nivale
  disease control: 100%
[1]; [2]
  logP: 3.69

## CC(C)c1ccc(Cl)cc1CN(C(=O)c1c(C(F)F)nn(C)c1F)C1CC1 [Example 29]
Sphaerotheca fuliginea
  disease control: 100%
Fusarium nivale
  disease control: 100%
[1]; [2]
  logP: 4.09

## Cn1nc(C(F)F)c(C(=O)N(Cc2cc(Cl)ccc2I)C2CC2)c1F [Example 23]
Sphaerotheca fuliginea
  disease control: 100%
Fusarium nivale
  disease control: 100%
[1]; [2]
  logP: 3.83

## CC[Si](CC)(CC)c1ccccc1CN(C(=O)c1c(C(F)F)nn(C)c1F)C1CC1 [Example 14]
Sphaerotheca fuliginea
  disease control: 100%
Fusarium nivale
  disease control: 100%
[1]; [2]
  logP: 5.53

## Cn1nc(C(F)F)c(C(=O)N(Cc2cc(F)c(Br)cc2Br)C2CC2)c1F [Example 16]
Fusarium nivale
  disease control: 100%
[1]; [2]
  logP: 3.96

## Cn1nc(C(F)F)c(C(=O)N(Cc2c(F)cccc2I)C2CC2)c1F [Example 8]
Sphaerotheca fuliginea
  disease control: 100%
Fusarium nivale
  disease control: 100%
[1]; [2]
  logP: 3.26

## CC(c1ncc(C(F)(F)F)cc1Cl)N(C(=O)c1c(C(F)F)nn(C)c1F)C1CC1 (stereo not shown) [Example 90]
Fusarium nivale
  disease control: 100%
[1]; [2]
  logP: 3.71

## CC(C)Oc1ccc2c(c1)CCCC2N(C(=O)c1c(C(F)F)nn(C)c1F)C1CC1 (stereo not shown) [Example 42]
Fusarium nivale
  disease control: 100%
[1]; [2]
  logP: 4.11

## Cn1nc(C(F)F)c(C(=O)N(Cc2c(Br)ccc(F)c2F)C2CC2)c1F [Example 10]
Sphaerotheca fuliginea
  disease control: 100%
Fusarium nivale
  disease control: 100%
[1]; [2]
  logP: 3.21

## Cn1nc(C(F)F)c(C(=O)N(Cc2ccccc2OC(F)(F)F)C2CC2)c1F [Example 105]
Fusarium nivale
  disease control: 100%
[1]; HPLC on reversed-phase column (C 18)
  logP: 3.46

## Cn1nc(C(F)F)c(C(=S)N(Cc2ccccc2)C2CC2)c1F [Example 39]
Fusarium nivale
  disease control: 100%
[1]; [2]
  logP: 3.44

## Cn1nc(C(F)F)c(C(=O)N(Cc2c(C(F)(F)F)ccc(Cl)c2F)C2CC2)c1F [Example 5]
Sphaerotheca fuliginea
  disease control: 100%
Tetranychus urticae
  mortality in %: 80%
Fusarium nivale
  disease control: 100%
[1]; [2]
  logP: 3.62
